From patent publication US12440479B2, “Prevention or treatment of chronic organ injury” (GEORG-AUGUST-UNIVERSITAET GOETTINGEN, STIFTUNG …, priority 2018, dated 2025)

Test system: ARNT dimers
Assay: Native gel analysis of total kidney lysates after Arnt pulldown (UUO mice)
Format: in vivo
Settings: UUO mice treated with FK506; without interaction with HIF1α, HIF2α or AHR
Text: Tissue and cells were homogenized in NP40 lysis buffer (Life technologies, Carlsbad, USA) supplemented with protease inhibitor cocktail (Roche, Basel, Switzerland). After sonication, protein samples were resolved by a 4-12% Bis-Tris polyacrylamide gel electrophoresis system (Novex, Carlsbad, USA) and transferred onto a nitrocellulose membrane (GE Healthcare, Freiburg, Deutschland), followed by a blocking step with 5% dry milk or 5% bovine serum albumin (BSA) in TBS-T (TBS pH 7.2, 0.1% Tween-20) to prevent unspecific bindings. After incubation with respective primary antibodies against ALK3 (ABD51, Merck Millipore, Billerica, USA) and ALK6 (ABD50, Merck Millipore, Billerica, USA), pSmad1/5/8 (13820, Cell Signaling, Danvers, USA), Arnt (3718, Cell Signaling, Danvers, USA), Fkbp12 (ab2918, Abcam Biochemicals, Cambridge, UK), NFATc1 (sc-7294, Santa Cruz Biotechnology, Dallas, USA), NFATc2 (sc-7295, Santa Cruz Biotechnology, Dallas, USA), β-actin (A5316, Sigma, St. Louis, USA) and Gapdh (5G4, HyTest, Turku, Finland), secondary HRP-conjugated antibodies were used (Dako, Glostrup, Denmark). Luminescence was detected by using chemiluminescent substrate (Cell Signaling, Danvers, USA) on a ChemiDoc XRS system (Bio-Rad, Hercules, USA). Native protein samples were prepared with Native PAGE Sample Prep kit (Novex, Carlsbad, USA) according to the manufacturer's instruction. […]

C=CC[C@@H]1/C=C(\C)C[C@H](C)C[C@H](OC)[C@H]2O[C@@](O)(C(=O)C(=O)N3CCCC[C@H]3C(=O)O[C@H](/C(C)=C/[C@@H]3CC[C@@H](O)[C@H](OC)C3)[C@H](C)[C@@H](O)CC1=O)[C@H](C)C[C@@H]2OC [FK506, tacrolimus]
formation of ARNT dimers in total kidney lysates: increased formation of ARNT dimers
